Patent US9119401B2, “Plant glutamine synthetase inhibitors and methods for their identification” (priority 2012, dated 2015)
Read-outs that look alike come from different tables or passages of the source.

Tests used:
[1] = system: recombinant glutamine synthetase from Lotus japonicas; assay: Biosynthetic assay for plant glutamine synthetase; format: biochemical; details: for effect on plant glutamate synthetase activity (in words): text summary of Table 5, 40 μg/ml
Method: The biosynthetic assay for plant glutamine synthetase was carried out as follows. This assay uses following solutions: reaction buffer (pH 6.8, 75 mM HEPES, 300 mM L-glutamic acid, 11 mM NH4Cl, 40 mM MgCl2), recombinant […] GS from Lotus japonicas (Betti et al., 2006) working solution (pH 6.8, 50 mM ATP), reaction quenching and color formation solution (12% w/v L-ascorbic acid in 1 N HCl solution and 2% w/v sodium molybdate in DD H2O), color fixing solution (1% sodium citrate tribasic dehydrate in 1% acetic acid in DD H2O), and blank solution (420 mM EDTA solution).
Commercial herbicide (i.e., glufosinate or DL-Phosphinotricin) was used a positive control. EDTA was used as a negative control. In this experiment, we used the active ingredient(s) in the extracts from Burkholderia Spp. (internal labeled as A396 strain or MBI-206 and/or MBI-010).

Burkholderia A396 = format: cell-based, Burkholderia sp. A396; details: for Susceptible: Muller-Hinton medium, 72-hour incubation at 25° C.; for Susceptibility of Burkholderia A396 (in words): Table 2
Method: Antibiotic susceptibility of Burkholderia A396 is tested using antibiotic disks on Muller-Hinton medium as described in PML Microbiological's technical data sheet #535.

B. cepacia isolates = details: 366 B. cepacia isolates, Pitt et al., 1996; cited from earlier work
[2] = system: B. cepacia complex strains isolated from cystic fibrosis patients; details: of 2,621 B. cepacia complex strains, Zhou et al., 2007; cited from earlier work
[3] = Table 5, pure compounds of MBI-206 and fractions, 40 μg/ml

## C/C=C1\NC(=O)[C@H]2CSSCC/C=C/[C@H](CC(=O)N[C@H](C(C)C)C(=O)N2)OC(=O)[C@H](C(C)C)NC1=O [FR901228 (iii), FR901228]
[1]; [3]
  GS inhibition (%): 57%
[1]
  effect on plant glutamate synthetase activity (in words): inhibitory effect

## C[C@@H](O)[C@H]1C(=O)N2C(C(=O)O)=C(SCCN=CN)C[C@H]12 [Imipenem]
Burkholderia A396; disk 10 ug
  Susceptible: +++

## O=C(O)c1cn(C2CC2)c2cc(N3CCNCC3)c(F)cc2c1=O [Ciprofloxacin]
B. cepacia isolates
  antibiotic resistance of isolates (in words): most of them are resistant
Burkholderia A396
  Susceptibility of Burkholderia A396 (in words): susceptible
Burkholderia A396; disk 5 ug
  Susceptible: ++
[2]
  strains susceptible: 5%

## COC(=O)c1nc(CC(C)C)oc1-c1c[nH]c2ccccc12 [Templazole A (i), templazole A]
[1]; [3]
  GS inhibition (%): 30%
[1]
  effect on plant glutamate synthetase activity (in words): inhibitory effect

## CP(=O)(O)CCC(N)C(=O)O (racemic) [DL-Phosphinotricin]
[1]; Study #2 (MBI-206), 100 μg/ml
  GS inhibition (%) Plate 1: 68.8%
  GS inhibition (%) Plate 2: 71.5%
[1]; Table 5, pure compounds of MBI-206 and fractions, 100 μg/ml
  GS inhibition (%): 70.8%
[1]; study #1 (MBI-010), 200 μg/ml final concentration
  GS inhibition (%): 70%
[1]; study #1 (MBI-010), 200 μg/ml final concentration, listed as DL-phosphinotricin
  GS inhibition (%): about 70%

## CO/N=C(\C(=O)N[C@@H]1C(=O)N2C(C(=O)O)=C(COC(N)=O)CS[C@H]12)c1ccco1 [Cefuroxime]
B. cepacia isolates
  antibiotic resistance of isolates (in words): most of them are resistant
Burkholderia A396; disk 30 ug
  Susceptible: −

## [H]/N=C(/N)N[C@H]1[C@H](O)[C@@H](O)[C@H](O[C@@H]2O[C@@H](C)[C@](O)(C=O)[C@H]2O[C@@H]2O[C@@H](CO)[C@H](O)[C@@H](O)[C@@H]2NC)[C@@H](N/C(N)=N\[H])[C@@H]1O [Streptomycin]
Burkholderia A396; disk 10 ug
  Susceptible: −

## templazole B [Templazole B (ii)]
[1]; [3]
  GS inhibition (%): 46%
[1]
  effect on plant glutamate synthetase activity (in words): inhibitory effect

## CN(C)[C@@H]1C(O)=C(C(N)=O)C(=O)[C@@]2(O)C(O)=C3C(=O)c4c(O)cccc4[C@@](C)(O)[C@H]3[C@H](O)[C@@H]12 [Oxytetracycline]
Burkholderia A396; disk 30 ug
  Susceptible: −

## O=C(N[C@H](CO)[C@H](O)c1ccc([N+](=O)[O-])cc1)C(Cl)Cl [Chloramphenicol]
Burkholderia A396
  Susceptibility of Burkholderia A396 (in words): susceptible
Burkholderia A396; disk 30 ug
  Susceptible: ++
[2]
  strains resistant: 85%
  strains susceptible: 15%

## CCN1CCN(C(=O)N[C@@H](C(=O)N[C@@H]2C(=O)N3[C@@H]2SC(C)(C)[C@@H]3C(=O)O)c2ccccc2)C(=O)C1=O [Piperacillin]
Burkholderia A396
  Susceptibility of Burkholderia A396 (in words): susceptible
Burkholderia A396; disk 100 ug
  Susceptible: +++

## Penicillin
Burkholderia A396; disk 10 ug
  Susceptible: −

## CC1(C)S[C@@H]2[C@H](NC(=O)[C@H](N)c3ccccc3)C(=O)N2[C@H]1C(=O)O [Ampicillin]
Burkholderia A396; disk 10 ug
  Susceptible: −

## CN(C)[C@@H]1C(O)=C(C(N)=O)C(=O)[C@@]2(O)C(O)=C3C(=O)c4c(O)cccc4[C@@](C)(O)[C@H]3C[C@@H]12 [Tetracycline]
Burkholderia A396; disk 30 ug
  Susceptible: −

## CC[C@H]1OC(=O)[C@H](C)[C@@H](O[C@H]2C[C@@](C)(OC)[C@@H](O)[C@H](C)O2)[C@H](C)[C@@H](O[C@@H]2O[C@H](C)C[C@H](N(C)C)[C@H]2O)[C@](C)(O)C[C@@H](C)C(=O)[C@H](C)[C@@H](O)[C@]1(C)O [Erythromycin]
Burkholderia A396; disk 15 ug
  Susceptible: −

## NC[C@H]1O[C@H](O[C@H]2[C@H](O)[C@@H](O[C@H]3O[C@H](CO)[C@@H](O)[C@H](N)[C@H]3O)[C@H](N)C[C@@H]2N)[C@H](O)[C@@H](O)[C@@H]1O [Kanamycin]
Burkholderia A396; disk 30 ug
  Susceptible: +++

## Gentamicin
Burkholderia A396; disk 10 ug
  Susceptible: −
